In ChEMBL document CHEMBL3351438, “Further optimization of the M5 NAM MLPCN probe ML375: tactics and challenges” (Bioorg Med Chem Lett, 2015):
The source made the active and inactive calls. No cut-off for these calls is given here.

Legend:
Rattus norvegicus [1] = assay: Oral bioavailability in Sprague-Dawley rat at 10 mg/kg; type: ADME, organism-based; conditions: in vivo
[2] = Intrinsic clearance in human liver microsomes; type: ADME; conditions: read-out: CLH
Plasma [3] = assay: fCmax in Sprague-Dawley rat plasma at 10 mg/kg, po pretreated with 56.6 mg/kg, po 1-aminobenzotriazole; type: ADME, organism-based; conditions: in vivo
[4] = AUC (0 to infinity) in Sprague-Dawley rat at 10 mg/kg, po pretreated with 56.6 mg/kg, po 1-aminobenzotriazole; type: ADME, organism-based; set-up: dose 10 mg/kg, time infinity, route oral; conditions: plasma
[5] = Mean residence time in Sprague-Dawley rat at 10 mg/kg, po; type: ADME, organism-based; set-up: dose 10 mg/kg, route oral; conditions: in vivo
[6] = Cmax in Sprague-Dawley rat in plasma at 10 mg/kg, po pretreated with 56.6 mg/kg, po 1-aminobenzotriazole; type: ADME, organism-based; set-up: dose 10 mg/kg, route oral
[7] = molecular target: T1, Muscarinic acetylcholine receptor M5 (Homo sapiens, UniProt P08912); assay: Negative allosteric modulation of human muscarinic acetylcholine receptor M5 expressed in CHO cells assessed as inhibition of acetylcholine-induced calcium mobilization incubated for 150 secs prior to acetylcholine induction by Fluo4AM staining-based fluorescence assay
T1 sequence (P08912 whole entry): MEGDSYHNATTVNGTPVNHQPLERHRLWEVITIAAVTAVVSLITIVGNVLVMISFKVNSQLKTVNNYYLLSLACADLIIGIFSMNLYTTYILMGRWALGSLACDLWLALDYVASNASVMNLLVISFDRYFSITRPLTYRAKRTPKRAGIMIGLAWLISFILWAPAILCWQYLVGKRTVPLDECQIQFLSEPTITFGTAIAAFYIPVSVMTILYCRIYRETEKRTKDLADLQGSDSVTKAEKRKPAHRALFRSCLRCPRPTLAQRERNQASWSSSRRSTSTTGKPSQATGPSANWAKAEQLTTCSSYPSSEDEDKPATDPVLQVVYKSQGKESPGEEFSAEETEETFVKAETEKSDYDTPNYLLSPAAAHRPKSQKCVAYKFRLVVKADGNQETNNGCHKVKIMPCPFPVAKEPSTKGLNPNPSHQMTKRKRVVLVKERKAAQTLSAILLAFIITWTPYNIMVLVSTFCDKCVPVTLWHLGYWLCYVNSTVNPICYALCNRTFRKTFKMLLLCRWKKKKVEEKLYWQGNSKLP

[8] = Tmax in Sprague-Dawley rat at 10 mg/kg, po; type: ADME, organism-based; set-up: dose 10 mg/kg, route oral; conditions: in vivo
[9] = Intrinsic clearance in rat hepatocytes; type: ADME, cell-based, Hepatocyte; conditions: read-out: CLH
Rattus norvegicus [10] = assay: AUC (0 to infinity) in Sprague-Dawley rat at 10 mg/kg, po; type: ADME, organism-based, Plasma; set-up: time infinity, dose 10 mg/kg, route oral; conditions: in vivo
[11] = Volume of distribution at steady state in Sprague-Dawley rat at 1 mg/kg, iv; type: ADME, organism-based; set-up: dose 1 mg/kg, route intravenous; conditions: in vivo, read-out: Vdss
[12] = molecular target: T2, Muscarinic acetylcholine receptor M5 (Rattus norvegicus, UniProt P08911); assay: Negative allosteric modulation of rat muscarinic acetylcholine receptor M5 expressed in CHO cells assessed as inhibition of acetylcholine-induced calcium mobilization incubated for 150 secs prior to acetylcholine induction by Fluo4AM staining-based fluorescence assay; type: functional, cell-based
T2 sequence (P08911 whole entry): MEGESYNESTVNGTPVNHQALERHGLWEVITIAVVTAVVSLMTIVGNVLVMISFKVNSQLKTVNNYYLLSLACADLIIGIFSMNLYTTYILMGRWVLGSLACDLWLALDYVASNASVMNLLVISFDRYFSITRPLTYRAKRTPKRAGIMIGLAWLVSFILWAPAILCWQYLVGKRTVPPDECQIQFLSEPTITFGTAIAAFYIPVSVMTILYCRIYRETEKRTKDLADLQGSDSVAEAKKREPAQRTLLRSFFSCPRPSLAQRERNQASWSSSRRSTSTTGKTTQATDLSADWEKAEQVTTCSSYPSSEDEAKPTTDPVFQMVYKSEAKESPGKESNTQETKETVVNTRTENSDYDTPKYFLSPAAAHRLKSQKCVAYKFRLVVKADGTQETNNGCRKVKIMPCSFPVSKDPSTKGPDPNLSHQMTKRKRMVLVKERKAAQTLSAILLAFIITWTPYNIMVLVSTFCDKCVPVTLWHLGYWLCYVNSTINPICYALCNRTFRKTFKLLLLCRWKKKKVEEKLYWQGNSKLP

[13] = Cmax in Sprague-Dawley rat in brain at 10 mg/kg, po pretreated with 56.6 mg/kg, po 1-aminobenzotriazole; type: ADME, organism-based; set-up: dose 10 mg/kg, route oral
[14] = Intrinsic clearance in human hepatocytes; type: ADME, cell-based, Hepatocyte; conditions: read-out: CLH
[15] = Fraction unbound in Sprague-Dawley rat brain; type: ADME, tissue-based; conditions: brain tissue
[16] = Half life in Sprague-Dawley rat at 1 mg/kg, iv; type: ADME, organism-based; set-up: dose 1 mg/kg, route intravenous; conditions: in vivo
[17] = Oral bioavailability in Sprague-Dawley rat at 10 mg/kg pretreated with 56.6 mg/kg, po 1-aminobenzotriazole; type: ADME, organism-based; conditions: in vivo
[18] = Intrinsic clearance in rat liver microsomes; type: ADME; conditions: read-out: CLH
[19] = (§1) Fraction unbound in Sprague-Dawley rat plasma; type: ADME, cell-free; conditions: Sprague-Dawley
[20] = molecular target: T3, Muscarinic acetylcholine receptor M5 (Homo sapiens) (UniProt P08912); conditions: CHO
T3 sequence (whole entry): T1 sequence (P08912 whole entry)

[21] = (§2) Fraction unbound in human plasma; type: ADME, cell-free
Plasma [22] = assay: as §1; type: ADME, cell-free
Plasma [23] = assay: as §2; type: ADME, cell-free

`COc1ccc([C@@]23c4ccccc4C(=O)N2CCN3C(=O)c2cc(F)c(F)c(F)c2)cc1C` gave an F (Rattus norvegicus [1]) of 2%, a CLint scaled [2] of 359 mL/min/kg and a fCmax (Plasma [3]) of 62 nM. For the same molecule, the AUC(0-inf) [4] was 17700 ng·h/mL, the MRT [5] was 6.5 h and the Cmax [6] was 2 µM. For the same molecule, the IC50 [7] was 0.264 µM, the Tmax [8] was 2.8 h and the CLint scaled [9] was 57.8 mL/min/kg. For the same molecule, the AUC (Rattus norvegicus [10]) was 3660 ng·h/mL, the Vd [11] was 4.9 L/kg and the IC50 ([12]; read-out: IC50) was 0.516 µM. The Cmax [13] was 5.4 µM, the CLint scaled [14] was 19.8 mL/min/kg and the fraction unbound [15] was 0.006. For the same molecule, the half-life [16] was 1.08 h, the bioavailability [17] was 9.5% and the CLint scaled [18] was 332 mL/min/kg. The fraction unbound [19] was 0.031.

With `COc1ccc([C@]23c4ccccc4C(=O)N2CCN3C(=O)c2cc(F)c(F)c(F)c2)cc1C` the IC50 ([7]; cho) was “Not Active”, the IC50 ([12]; cho) was “Not Active” and the pIC50 [20] was “inactive”. It also gave a fraction unbound [21] of 0.013.

In the case of `[2H]C([2H])([2H])Oc1ccc([C@@]23c4ccccc4C(=O)N2CCN3C(=O)c2cc(F)c(F)c(F)c2)cc1C`, the CLint scaled [9] is reported as 55.8 mL/min/kg, the CLint scaled [14] is reported as 16.3 mL/min/kg and the CLint scaled [18] is reported as 275 mL/min/kg.

Molecule `O=C(c1ccc(F)c(F)c1)N1CCN2C(=O)c3ccccc3C12c1ccc(Cl)cc1` (racemic) has a Fu (Plasma [22]) of 0.031 and a Fu (Plasma [23]) of 0.015.

For `CC(C)Oc1ccc(C23c4ccccc4C(=O)N2CCN3C(=O)c2ccc(F)c(F)c2)cc1` (racemic), the IC50 [7] was over 30 µM.

Molecule `O=C(c1ccc(F)c(F)c1)N1CCN2C(=O)c3ccccc3C12c1ccc2c(c1)OCO2` (racemic) has an IC50 [7] of 1.3 µM.

Work on `COc1ccc(C23c4ccccc4C(=O)N2CCN3C(=O)c2ccc(F)c(F)c2)cc1F` (racemic) yielded an IC50 [7] of 3.3 µM.

With `COc1ccc(C23c4ccccc4C(=O)N2CCN3C(=O)c2ccc(F)c(F)c2)cc1Cl` (racemic) the IC50 [7] was 5.5 µM.

Molecule `COc1ccc(C23c4ccccc4C(=O)N2CCN3C(=O)c2ccc(F)c(F)c2)cc1C` (racemic) has an IC50 [7] of 1.2 µM.

`COc1cc(C23c4ccccc4C(=O)N2CCN3C(=O)c2ccc(F)c(F)c2)ccc1F` (racemic) showed an IC50 [7] of 2.7 µM.

In the case of `COc1cc(C23c4ccccc4C(=O)N2CCN3C(=O)c2ccc(F)c(F)c2)ccc1Cl` (racemic), the IC50 [7] is reported as 2 µM.

For `COc1cc(C23c4ccccc4C(=O)N2CCN3C(=O)c2ccc(F)c(F)c2)ccc1C` (racemic), the IC50 [7] was 1.3 µM.

`CCOc1ccc(C23c4ccccc4C(=O)N2CCN3C(=O)c2cc(F)c(F)c(F)c2)cc1` (racemic) showed an IC50 [7] of over 30 µM.

Molecule `CC(C)Oc1ccc(C23c4ccccc4C(=O)N2CCN3C(=O)c2cc(F)c(F)c(F)c2)cc1` (racemic) has an IC50 [7] of 2.4 µM.

For `O=C(c1cc(F)c(F)c(F)c1)N1CCN2C(=O)c3ccccc3C12c1ccc2c(c1)OCO2` (racemic), the IC50 [7] was 1 µM.

In the case of `COc1ccc(C23c4ccccc4C(=O)N2CCN3C(=O)c2cc(F)c(F)c(F)c2)cc1F` (racemic), the IC50 [7] is reported as over 30 µM.

Work on `COc1ccc(C23c4ccccc4C(=O)N2CCN3C(=O)c2cc(F)c(F)c(F)c2)cc1Cl` (racemic) yielded an IC50 [7] of 1.4 µM.

With `COc1ccc(C23c4ccccc4C(=O)N2CCN3C(=O)c2cc(F)c(F)c(F)c2)cc1C` (racemic) the IC50 [7] was 0.51 µM and the IC50 ([12]; read-out: IC50) was 0.963 µM.

`COc1cc(C23c4ccccc4C(=O)N2CCN3C(=O)c2cc(F)c(F)c(F)c2)ccc1F` (racemic) showed an IC50 [7] of 0.7 µM.

In the case of `COc1cc(C23c4ccccc4C(=O)N2CCN3C(=O)c2cc(F)c(F)c(F)c2)ccc1Cl` (racemic), the IC50 [7] is reported as 1.6 µM.

`COc1cc(C23c4ccccc4C(=O)N2CCN3C(=O)c2cc(F)c(F)c(F)c2)ccc1C` (racemic) gave an IC50 [7] of 0.9 µM.

With `CCOc1ccc(C23c4ccccc4C(=O)N2CCN3C(=O)c2ccc(OC(C)C)cc2)cc1` (racemic) the IC50 [7] was 4.1 µM.

`CC(C)Oc1ccc(C(=O)N2CCN3C(=O)c4ccccc4C23c2ccc(OC(C)C)cc2)cc1` (racemic) showed an IC50 [7] of 1.9 µM.

`CC(C)Oc1ccc(C(=O)N2CCN3C(=O)c4ccccc4C23c2ccc3c(c2)OCO3)cc1` (racemic) gave an IC50 [7] of 1.1 µM.

Molecule `COc1ccc(C23c4ccccc4C(=O)N2CCN3C(=O)c2ccc(OC(C)C)cc2)cc1F` (racemic) has an IC50 [7] of 3.2 µM.

With `COc1ccc(C23c4ccccc4C(=O)N2CCN3C(=O)c2ccc(OC(C)C)cc2)cc1Cl` (racemic) the IC50 [7] was 3.3 µM.

For `COc1ccc(C23c4ccccc4C(=O)N2CCN3C(=O)c2ccc(OC(C)C)cc2)cc1C` (racemic), the IC50 [7] was 1.3 µM.
